Results: PMC7656694 (Biotechnology for Biofuels, 2020)
Positions count from the first letter of the chain named. Names may count otherwise.

Experiments:
[1] = target: T1, SmBdh (Serratia marcescens, UniProt H9XP47); assay: X-ray crystal structure, […] A; format: binding
T1 construct: gene budC; full length, N-terminal His6 and TEV site after start codon (cleavage not described), codon-optimized, expressed in Zymomonas mobilis 9C; tetramer, site completed by Gln247 of the symmetry-related chain
T1 sequence (H9XP47 2-251): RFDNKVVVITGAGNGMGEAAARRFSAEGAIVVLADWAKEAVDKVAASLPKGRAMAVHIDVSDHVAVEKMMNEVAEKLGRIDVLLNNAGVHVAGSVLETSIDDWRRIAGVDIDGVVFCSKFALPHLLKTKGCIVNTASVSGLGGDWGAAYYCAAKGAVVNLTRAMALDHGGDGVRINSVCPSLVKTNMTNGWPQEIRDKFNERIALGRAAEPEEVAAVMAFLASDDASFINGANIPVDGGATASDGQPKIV

[2] = target: T2, EcBdh (Enterobacter cloacae, UniProt G8FSA9); assay: NADH consumption at […] nm; format: biochemical; conditions: 0.25 mM NADH, 25 mM acetoin, 100 mM potassium phosphate pH 7.0; racemic acetoin
T2 construct: gene dar; full length, N-terminal His6 and TEV site (cleavage not described), gene amplified from Z. mobilis strain BC-11B, expressed in Zymomonas mobilis 9C, purified
T2 sequence (G8FSA9 1-256): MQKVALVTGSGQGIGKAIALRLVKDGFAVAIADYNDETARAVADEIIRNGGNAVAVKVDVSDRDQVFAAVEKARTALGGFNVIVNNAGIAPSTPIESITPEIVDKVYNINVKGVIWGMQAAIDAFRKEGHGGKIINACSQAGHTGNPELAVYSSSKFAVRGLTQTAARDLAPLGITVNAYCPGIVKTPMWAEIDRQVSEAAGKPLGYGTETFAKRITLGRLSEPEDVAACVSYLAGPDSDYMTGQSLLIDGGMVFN

[3] = target: the molecule itself; assay: crystal structure

`NC(=O)c1ccc[n+]([C@@H]2O[C@H](COP(=O)(O)OP(=O)(O)OC[C@H]3O[C@@H](n4cnc5c(N)ncnc54)[C@H](O)[C@@H]3O)[C@@H](O)[C@H]2O)c1` [NAD^+] was tested, and the “X-ray crystal structure, 2.0 A” value ([1]; cofactor site of closed molecule A, with acetoin) was “locate NAD ^+ cofactor molecule and acetoin molecules in protein molecule A”.

`CC(=O)C(C)O` (racemic) [acetoin] was tested, and the “NADH consumption at 340 nm” value [2] was “Proteins were expressed in the Z. mobilis 9C strain, purified to homogeneity”.

For `NC(=O)C1=CN([C@@H]2O[C@H](COP(=O)(O)OP(=O)(O)OC[C@H]3O[C@@H](n4cnc5c(N)ncnc54)[C@H](O)[C@@H]3O)[C@@H](O)[C@H]2O)C=CC1` [NADH], the “NADH consumption at 340 nm” value [2] was “subjected to activity analysis using the NADH consumption assay”.

`CC(=O)[C@H](C)O` [(3S)-acetoin] was tested, and the “X-ray crystal structure, 2.0 A” value ([1]; NAD+ bound, active site of closed molecule A, modelled together with (3R)-acetoin from racemate) was “both (3R)- and (3S)-acetoin molecules bound in the pocket”.

For `Nc1ncnc2c1ncn2[C@@H]1O[C@H](COP(=O)(O)OP(=O)(O)O)[C@@H](O)[C@H]1O` [ADP], the “X-ray crystal structure, 2.0 A” value ([1]; cofactor site of open molecule B, only NAD+ was added in crystallization) was “the corresponding space is occupied by only adenine diphosphate”.

`CC(=O)[C@@H](C)O` [(3R)-acetoin] was tested, and the “X-ray crystal structure, 2.0 A” value ([1]; NAD+ bound, active site of closed molecule A, modelled together with (3S)-acetoin from racemate) was “both (3R)- and (3S)-acetoin molecules bound in the pocket”.

B1: Serratia marcescens 2,3-butanediol dehydrogenase, wild type (N-term SmBdh) (enzyme, UniProt H9XP47 1-251, looked up)
chain: MRFDNKVVVITGAGNGMGEAAARRFSAEGAIVVLADWAKEAVDKVAASLPKGRAMAVHIDVSDHVAVEKMMNEVAEKLGRIDVLLNNAGVHVAGSVLETSIDDWRRIAGVDIDGVVFCSKFALPHLLKTKGCIVNTASVSGLGGDWGAAYYCAAKGAVVNLTRAMALDHGGDGVRINSVCPSLVKTNMTNGWPQEIRDKFNERIALGRAAEPEEVAAVMAFLASDDASFINGANIPVDGGATASDGQPKIV
notes: tag and TEV site placed immediately after the start codon; also called WT SmBdh; WT SmBDH; source: Z. mobilis strain 9C, purified (HisTrap, size exclusion chromatography)
B1 was tested, and the “stoichiometry N” value [3] was 4.

B2: Serratia marcescens 2,3-butanediol dehydrogenase Q247A mutant (enzyme)
chain: B1 chain with Q247A
notes: also called SmBdh Q247A; Q247A SmBdh; source: Z. mobilis strain 9C, purified (HisTrap, size exclusion chromatography)
B2: binds [3].

B3: Serratia marcescens 2,3-butanediol dehydrogenase Q247A + V139Q double mutant (enzyme)
chain: B1 chain with V139Q, Q247A
notes: also called SmBdh Q247A + V139Q; Q247A + V139Q SmBdh; source: Z. mobilis strain 9C, purified (HisTrap, size exclusion chromatography)
B3: binds [3].
